Converted amounts (≈) assume the structure as drawn.
Assays:
[1] = tested on: PC-3; assay: Cytotoxicity against human PC-3 cells assessed as reduction in cell viability measured for 48 hrs by resazurin dye based assay; type: functional; details: PC-3, 48 h
[2] = Cytotoxicity against human WPMY-1 cells assessed as reduction in cell viability measured for 48 hrs by resazurin dye based assay; type: toxicity
[3] = tested on: Staphylococcus aureus; assay: Antibacterial activity against methicillin-resistant Staphylococcus aureus ATCC 43300 assessed as bacterial growth inhibition resazurin dye based microplate analysis; type: functional
[4] = tested on: Staphylococcus aureus; assay: Antibacterial activity against methicillin-sensitive Staphylococcus aureus ATCC 25923 assessed as bacterial growth inhibition resazurin dye based microplate analysis; type: functional
[5] = tested on: Pseudomonas aeruginosa; assay: Antibacterial activity against Pseudomonas aeruginosa ATCC 27853 assessed as bacterial growth inhibition resazurin dye based microplate analysis; type: functional

With `CCCCCCCCCC(=O)N(C)CCCNCCCNCCCNCCCCNCCCNCCCNCCCN(C)C(=O)CCCCCCCC(C)C` as the molecule, how does the IC50 [1] read?
The IC50 was 4.1 µM.

And the IC50 at 48 h [2]?
The IC50 at 48 h was 4.1 µM.

What about the MIC90 [3] of the same molecule?
The MIC90 was 32 µg/mL (≈ 41 µM).

What about the MIC90 [4] of the same molecule?
Its MIC90 is 32 µg/mL (≈ 41 µM).

What about the MIC90 [5] of the same molecule?
Its MIC90 is 64 µg/mL (≈ 81.9 µM).

Which IC50 [1] does the source give for `CCCCCCCCCC(=O)N(C)CCCNCCCNCCCNCCCCNCCCNCCCNCCCN(C)C(=O)CCCCCCC(C)C` here?
Its IC50 is 3.4 µM.

And the IC50 at 48 h [2]?
The IC50 at 48 h was 4.3 µM.

What about the MIC90 [3] of the same molecule?
The MIC90 was 16 µg/mL (≈ 20.9 µM).

What about the MIC90 [4] of the same molecule?
Its MIC90 is 8 µg/mL (≈ 10.4 µM).

And the MIC90 [5]?
Its MIC90 is 32 µg/mL (≈ 41.7 µM).

Which IC50 [1] does the source give for `COc1cccc2c1C(=O)c1c(O)c3c(c(O)c1C2=O)C[C@@](O)(C(=O)CO)C[C@@H]3O[C@H]1C[C@H](N)[C@H](O)[C@H](C)O1` [DOXORUBICIN] here?
The IC50 was 0.6 µM.

And the IC50 at 48 h [2]?
Its IC50 at 48 h is 0.7 µM.

For `CC[C@H]1OC(=O)[C@H](C)[C@@H](O[C@H]2C[C@@](C)(OC)[C@@H](O)[C@H](C)O2)[C@H](C)[C@@H](O[C@@H]2O[C@H](C)C[C@H](N(C)C)[C@H]2O)[C@](C)(O)C[C@@H](C)C(=O)[C@H](C)[C@@H](O)[C@]1(C)O` [ERYTHROMYCIN], which MIC90 [4] is on record?
Its MIC90 is 2 µg/mL (≈ 2.73 µM).

With `CC(=O)O[C@H]1C[C@@]2(C)[C@@H](C[C@@H](O)[C@H]3[C@@]4(C)CC[C@@H](O)[C@@H](C)[C@@H]4CC[C@@]32C)/C1=C(\CCC=C(C)C)C(=O)O` [FUSIDIC ACID] as the molecule, how does the MIC90 [3] read?
The MIC90 was 0.25 µg/mL (≈ 0.484 µM).

For `NC[C@H]1O[C@H](O[C@H]2[C@H](O)[C@@H](O[C@H]3O[C@H](CO)[C@@H](O)[C@H](N)[C@H]3O)[C@H](N)C[C@@H]2N)[C@H](N)C[C@@H]1O` [TOBRAMYCIN], which MIC90 [5] is on record?
Its MIC90 is 1 µg/mL (≈ 2.14 µM).
